Measured values from ChEMBL document CHEMBL6087460, “Generating a Peptide Library Using the Repeats of Amino Acid Scaffolds Created by Sliding the Framework of a 7-mer Human Chemerin Segment and Discovery of Potent Antibacterial and Antimycobacterial Peptides” (J Med Chem, 2025).
Values after ≈ are worked out from the molar mass of the structure shown. Active and inactive are the calls of the source. The calls are words filed in the database; no cut-off is given here. Where a SMILES comes first, the peptide text is derived from it.

Columns and labels:
Staphylococcus aureus [1] = experiment: Bactericidal activity against Staphylococcus aureus ATCC 25923 incubated for 16 to 18 hrs; assay type: functional; conditions: time 16-18 hrs
Escherichia coli [2] = experiment: Antibacterial activity against Escherichia coli ATCC 25922 incubated for 16 to 18 hrs in presence of 10 percent human serum by broth dilution assay; assay type: functional; conditions: time 16-18 hrs
[3] = Retention time of compound by RP-HPLC method; assay type: physicochemical
[4] = Cytotoxicity against mouse 3T3-L1 cells assessed as cell viability at 100 uM incubated for 24 hrs by MTT assay relative to control; assay type: toxicity, cell-based; conditions: 3T3-L1 cells, read-out: Activity
Escherichia coli [5] = experiment: Bactericidal activity against Escherichia coli ATCC 25922 at MIC incubated for 45 mins by time kill assay; assay type: functional, organism-based
Staphylococcus aureus [6] = experiment: Bactericidal activity against Staphylococcus aureus ATCC 25923 at MIC incubated for 45 mins by time kill assay; assay type: functional, organism-based
Staphylococcus aureus [7] = experiment: Antibacterial activity against Staphylococcus aureus ATCC 25923 incubated for 16 to 18 hrs in presence of 10 percent human serum by broth dilution assay; assay type: functional; conditions: time 16-18 hrs
Escherichia coli [8] = experiment: Induction of membrane depolarization in Escherichia coli ATCC 25922 by diSC3-5 dye based analysis; assay type: functional, organism-based
Staphylococcus aureus [9] = experiment: Antibacterial activity against methicillin-resistant Staphylococcus aureus 33591 incubated for 16 to 18 hrs by broth dilution assay; assay type: functional; conditions: time 16-18 hrs
Bacillus subtilis = experiment: Antibacterial activity against Bacillus subtilis 6633 incubated for 16 to 18 hrs by broth dilution assay; assay type: functional; conditions: time 16-18 hrs
Escherichia coli [10] = experiment: Antibacterial activity against Escherichia coli ATCC 25922 incubated for 16 to 18 hrs by broth dilution assay; assay type: functional; conditions: time 16-18 hrs
Klebsiella pneumoniae = experiment: Antibacterial activity against Klebsiella pneumoniae ATCC 27736 incubated for 16 to 18 hrs by broth dilution assay; assay type: functional; conditions: time 16-18 hrs
Escherichia coli [11] = experiment: Disruption of plasma membrane integrity in Escherichia coli ATCC 25922 by SYTOX-Green uptake assay; assay type: functional, organism-based
[12] = Cytotoxicity against rat L6 cells assessed as cell viability at 100 uM incubated for 24 hrs by MTT assay relative to control; assay type: toxicity, cell-based; conditions: L6 cells, read-out: Activity
[13] = Hemolytic activity in human RBC assessed as disruption of membrane integrity by Alexa Fluor-Annexin V staining based analysis; assay type: toxicity, cell-based; conditions: erythrocyte
[14] = system: Mycolicibacterium smegmatis; experiment: Antitubercular activity against Mycobacterium smegmatis incubated for 24 hrs by rezasurin dye based assay; assay type: functional
Escherichia coli [15] = experiment: Induction of cell membrane damage in Escherichia coli ATCC 25922 at 3 times MIC incubated for 60 mins by SEM analysis; assay type: functional, organism-based
Escherichia coli [16] = experiment: Bactericidal activity against Escherichia coli ATCC 25922 incubated for 16 to 18 hrs; assay type: functional; conditions: time 16-18 hrs
[17] = Hemolytic activity in human RBC measured after 40 mins by absorbance based assay; assay type: toxicity, cell-based, Erythrocyte; conditions: human red blood cells
Staphylococcus aureus [18] = experiment: Disruption of membrane integrity in Staphylococcus aureus ATCC 25923 by PI staining based analysis; assay type: functional, organism-based
Staphylococcus aureus [19] = experiment: Disruption of plasma membrane integrity in Staphylococcus aureus ATCC 25923 by SYTOX-Green uptake assay; assay type: functional, organism-based
Escherichia coli [20] = experiment: Disruption of membrane integrity in Escherichia coli ATCC 25922 by PI staining based analysis; assay type: functional, organism-based
Staphylococcus aureus [21] = experiment: Induction of membrane depolarization in Staphylococcus aureus ATCC 25923 by diSC3-5 dye based analysis; assay type: functional, organism-based
Staphylococcus aureus [22] = experiment: Induction of cell membrane damage in Staphylococcus aureus ATCC 25923 at 3 times MIC incubated for 60 mins by SEM analysis; assay type: functional, organism-based
Pseudomonas aeruginosa = experiment: Antibacterial activity against Pseudomonas aeruginosa ATCC BAA-427 incubated for 16 to 18 hrs by broth dilution assay; assay type: functional; conditions: time 16-18 hrs
Staphylococcus aureus [23] = experiment: Antibacterial activity against Staphylococcus aureus ATCC 25923 incubated for 16 to 18 hrs by broth dilution assay; assay type: functional; conditions: time 16-18 hrs
Staphylococcus aureus [24] = experiment: Antibacterial activity against methicillin-resistant Staphylococcus aureus BAA-44 incubated for 16 to 18 hrs by broth dilution assay; assay type: functional; conditions: time 16-18 hrs
Staphylococcus aureus [25] = experiment: Induction of resistance development in methicillin-resistant Staphylococcus aureus 33591 assessed as fold increase in MIC at sub-MIC measured after 30 passages relative to control; assay type: functional
Escherichia coli [26] = experiment: Induction of resistance development in Escherichia coli ATCC 25922 assessed as fold increase in MIC at sub-MIC measured after 30 passages relative to control; assay type: functional
Staphylococcus aureus [27] = experiment: Induction of resistance development in Staphylococcus aureus ATCC 25923 assessed as fold increase in MIC at sub-MIC measured after 30 passages relative to control; assay type: functional
Staphylococcus aureus [28] = experiment: Induction of resistance development in methicillin-resistant Staphylococcus aureus BAA-44 assessed as fold increase in MIC at sub-MIC measured after 30 passages relative to control; assay type: functional
[29] = Hemolytic activity in human RBC at 100 uM measured after 40 mins by absorbance based assay relative to control; assay type: toxicity, cell-based, Erythrocyte
[30] = Stability in 10 percent human serum assessed as compound remaining measured after 60 mins by RP-HPLC analysis; assay type: ADME, cell-free; conditions: 10% human serum, read-out: Stability
[31] = Drug localization in cell membrane of Escherichia coli ATCC 25922 at 3 times MIC by confocal microscopy; assay type: ADME, cell membranes
Staphylococcus aureus [32] = experiment: Bactericidal activity against Staphylococcus aureus ATCC 25923 at MIC incubated for 60 mins by time kill assay; assay type: functional, organism-based
Escherichia coli [33] = experiment: Bactericidal activity against Escherichia coli ATCC 25922 at MIC incubated for 60 mins by time kill assay; assay type: functional, organism-based

Row | Compound | MBC (Staphylococcus aureus [1]) | MIC (Escherichia coli [2]) | Retention_time [3] | viability at 24 h, 100 µM [4] | MIC (Staphylococcus aureus [7]) | Activity (Escherichia coli [8]) | MIC (Staphylococcus aureus [9]) | MIC (Bacillus subtilis) | MIC (Escherichia coli [10]) | MIC (Klebsiella pneumoniae) | Activity (Escherichia coli [11]) | viability at 24 h, 100 µM [12] | Activity [13] | MIC [14] | MBC (Escherichia coli [16]) | HC50 at 40 min [17] | Activity (Staphylococcus aureus [18]) | MIC (Pseudomonas aeruginosa) | MIC (Staphylococcus aureus [23]) | MIC (Staphylococcus aureus [24]) | also measured
1 | H-RLVRLVRLVRLV-OH | 8.4 µM | 16.8 µM | 19.25 min | 75% | 16.8 µM | Active | 4.2 µM | 2.1 µM | 4.2 µM | 8.4 µM | Active | 75% | Non-toxic | 5 µM | 8.4 µM | 2 mM | Active | 8.4 µM | 4.2 µM | 4.2 µM | Activity (Escherichia coli [5]): Active; Activity (Staphylococcus aureus [6]): Active; Activity (Escherichia coli [15]): Active; Activity (Staphylococcus aureus [19]): Active; Activity (Escherichia coli [20]): Active; Activity (Staphylococcus aureus [21]): Active; Activity (Staphylococcus aureus [22]): Active
2 | O=C(O)c1cn(C2CC2)c2cc(N3CCNCC3)c(F)cc2c1=O [CIPROFLOXACIN] |  |  |  |  |  |  | 6.3 µM (≈ 2.09 µg/mL) | 6.3 µM (≈ 2.09 µg/mL) | 0.1 µM (≈ 0.0331 µg/mL) | 0.1 µM (≈ 0.0331 µg/mL) |  |  |  |  |  |  |  | 6.3 µM (≈ 2.09 µg/mL) | 6.3 µM (≈ 2.09 µg/mL) | 6.3 µM (≈ 2.09 µg/mL) | fold change (FC) (Staphylococcus aureus [25]): 128; fold change (FC) (Escherichia coli [26]): 128; fold change (FC) (Staphylococcus aureus [27]): 128; fold change (FC) (Staphylococcus aureus [28]): 128
3 | H-KVLGKVLGKVLGKVLG-OH | 12.6 µM | 3.9 µM | 20.12 min | 75% | 12.6 µM | Active | 7.8 µM | 15.6 µM | 3.9 µM | 7.8 µM | Active | 75% | Non-toxic | > 10 µM | 3.9 µM | 2 mM | Active | 15.6 µM | 7.8 µM | 3.9 µM | Activity (Escherichia coli [5]): Active; Activity (Staphylococcus aureus [6]): Active; Activity (Staphylococcus aureus [19]): Active; Activity (Escherichia coli [20]): Active; Activity (Staphylococcus aureus [21]): Active
4 | H-KVLKVLKVLKVLKVL-OH |  |  | 20.77 min |  |  |  | 3.6 µM | 3.6 µM | 1.8 µM | 3.6 µM |  |  |  |  |  | 0.256 mM |  | 14.5 µM | 3.6 µM | 3.6 µM | hemolysis at 40 min, 100 µM ([29]; human red blood cells, read-out: Activity): 20%; remaining at 1 h [30]: 65%
5 | CC(C)C[C@H](NC(=O)[C@H](CCCNC(=N)N)NC(=O)[C@@H](NC(=O)[C@H](CC(C)C)NC(=O)[C@H](CCCNC(=N)N)NC(=O)[C@@H](NC(=O)[C@H](CC(C)C)NC(=O)[C@H](CCCNC(=N)N)NC(=O)[C@@H](NC(=O)[C@H](CC(C)C)NC(=O)[C@H](CCCNC(=N)N)NC(=O)c1cc(C(=O)O)ccc1-c1c2ccc(=[N+](C)C)cc-2oc2cc(N(C)C)ccc12)C(C)C)C(C)C)C(C)C)C(=O)N[C@H](C(=O)O)C(C)C.[Cl-] (HELM PEPTIDE1{[CN(C)c1ccc2c(-c3ccc(C(=O)O)cc3C(=O)[*:2])c3ccc(=[N+](C)C)cc-3oc2c1].R.L.V.R.L.V.R.L.V.R.L.V}$$$$V2.0) |  |  |  |  |  |  |  |  |  |  |  |  |  |  |  |  |  |  |  |  | Drug uptake [31]: Active
6 | CN(C)[C@@H]1C(O)=C(C(N)=O)C(=O)[C@@]2(O)C(O)=C3C(=O)c4c(O)cccc4[C@@](C)(O)[C@H]3C[C@@H]12 [TETRACYCLINE] |  |  |  |  |  |  | 100 µM (≈ 44.4 µg/mL) | 1.6 µM (≈ 0.711 µg/mL) | 3.1 µM (≈ 1.38 µg/mL) | 3.1 µM (≈ 1.38 µg/mL) |  |  |  |  |  |  |  | 50 µM (≈ 22.2 µg/mL) | 3.1 µM (≈ 1.38 µg/mL) | 100 µM (≈ 44.4 µg/mL) | fold change (FC) (Staphylococcus aureus [25]): <=64; fold change (FC) (Escherichia coli [26]): 32; fold change (FC) (Staphylococcus aureus [27]): 64; fold change (FC) (Staphylococcus aureus [28]): 128
7 | H-LGRLLGRLLGRL-OH | 18.2 µM | 18.2 µM | 15.4 min | > 80% | 18.2 µM | Active | 9.4 µM | 9.4 µM | 9.4 µM | 37.4 µM | Active | > 80% | Non-toxic | 5 µM | 18.2 µM | 2 mM | Active | 37.4 µM | 9.4 µM | 4.7 µM | Activity ([29]; erythrocyte, 40 min, 100 µM): Non-toxic; Activity (Staphylococcus aureus [19]): Active; Activity (Staphylococcus aureus [32]): Active; Exhibited Rapid Kinetics; Activity (Escherichia coli [20]): Active; Activity (Staphylococcus aureus [21]): Active; Activity (Escherichia coli [33]): Active; Exhibited Rapid Kinetics
